The values below come from paper PMC9007336, “Identification and molecular characterization of a novel non-specific lipid transfer protein (TdLTP2) from durum wheat” (PLoS ONE, 2022).

For this experiment, the target named is T1, rTdLTP2 (Triticum turgidum, UniProt A0A446PDN1).
T1 construct: gene LTP2; mature protein expressed from pPICZalphaA in Pichia pastoris, non-tagged, gel filtration and RP-HPLC
Description: hydrophobic ELISA plate coated with lipid, anti-LTP detection, one-site fit. Format: binding. An excerpt:
hydrophobic ELISA plate coated with lipid, anti-LTP detection, one-site fit on rTdLTP2 | high kd values specifically for oleic, palmitic acids and for sterol (Fig 5B and 5C) | rTdLTP2 can bind a wide range of lipids as oleic, linoleic, stearic, and palmitic acids

Usually Kd stands for the constant that tells how readily two partners part at equilibrium.

T1 sequence (A0A446PDN1 entry or part of it): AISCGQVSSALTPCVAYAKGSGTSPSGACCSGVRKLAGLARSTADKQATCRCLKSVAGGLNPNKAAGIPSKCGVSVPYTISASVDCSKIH

`CCCCCCCCCCCCCCCC(=O)O` [Palmitic acid] registered a Kd of 310 nM.

In the case of `CCCCC/C=C\C/C=C\CCCCCCCC(=O)O` [linoleic acid], binding was put at a Kd of 590 nM. On to `CC[C@H](CC[C@@H](C)[C@H]1CC[C@H]2[C@@H]3CC=C4C[C@@H](O)CC[C@]4(C)[C@H]3CC[C@]12C)C(C)C` [B-sitosterol], for which the Kd turned out to be 300 nM. For `CCCCCCCCCCCCCCCCCC(=O)O` [stearic acid], the Kd was determined as 470 nM. The compound `CCCCCCCC/C=C\CCCCCCCC(=O)O` [oleic acid] yielded a Kd of 300 nM.
